From patent US20100120778A1, “QUINOXALINE-BASED LXR MODULATORS” (Wyeth, priority 2008, published 2010)

Columns and labels:
human LXRα = biological target: T1, human LXRα (Homo sapiens, UniProt Q13133); assay: Ligand-binding test procedure for human LXRα (3H T0901317 tracer, flash plates); conditions: biotinylated hLXRα, tracer 3H T0901317, +4° C. over night
T1 construct: biotin (biotinylated); made in house; host or cells: E. coli
T1 sequence (Q13133 1-447): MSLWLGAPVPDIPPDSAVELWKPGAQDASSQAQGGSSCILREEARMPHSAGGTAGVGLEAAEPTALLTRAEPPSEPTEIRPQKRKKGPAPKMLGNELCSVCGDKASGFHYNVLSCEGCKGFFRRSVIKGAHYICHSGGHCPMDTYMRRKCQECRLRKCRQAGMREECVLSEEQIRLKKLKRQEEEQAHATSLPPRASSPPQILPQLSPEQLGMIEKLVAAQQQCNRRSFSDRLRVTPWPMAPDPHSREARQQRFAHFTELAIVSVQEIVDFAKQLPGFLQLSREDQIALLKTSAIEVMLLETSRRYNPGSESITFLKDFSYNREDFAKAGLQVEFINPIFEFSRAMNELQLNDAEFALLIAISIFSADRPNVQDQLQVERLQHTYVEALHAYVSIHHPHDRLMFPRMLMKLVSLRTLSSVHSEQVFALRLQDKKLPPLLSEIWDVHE
Method: II. Ligand-Binding Test Procedure for Human LXRα.
Receptor source: E. coli extract from cells expressing biotinylated hLXRα. Extract was made in a similar buffer as above, but with 50 mM TRIS.
Washed streptavidin and coated flash plates with wash buffer. Diluted receptor extract to give Bmax˜4000 cpm and add to the wells. Wrapped the plates in aluminum foil and stored them at +4° C. over night.
(§1) Made a dilution series in DMSO of the test ligands. Made a 5 nM solution of the radioactive tracer in buffer. Mixed 250 μl diluted tracer with 5 μl of the test ligand from each concentration of the dilution series. Washed the receptor-coated flash plates. Added 200 μl per well of the ligand/radiolabel mixture to the receptor-coated flash plates. Wrapped the plates in aluminum foil and incubate at +4° C. over night.
Aspirated wells, and wash the flashed plates. Sealed the plate. Measured the remaining radioactivity in the plate.

human LXRβ = biological target: T2, human LXRβ (Homo sapiens, UniProt P55055); assay: Ligand-binding test procedure for human LXRβ (3H T0901317 tracer, flash plates); conditions: biotinylated hLXRβ, tracer 3H T0901317, +4° C. over night
T2 construct: biotin (biotinylated); made in house; host or cells: E. coli
T2 sequence (P55055 1-460): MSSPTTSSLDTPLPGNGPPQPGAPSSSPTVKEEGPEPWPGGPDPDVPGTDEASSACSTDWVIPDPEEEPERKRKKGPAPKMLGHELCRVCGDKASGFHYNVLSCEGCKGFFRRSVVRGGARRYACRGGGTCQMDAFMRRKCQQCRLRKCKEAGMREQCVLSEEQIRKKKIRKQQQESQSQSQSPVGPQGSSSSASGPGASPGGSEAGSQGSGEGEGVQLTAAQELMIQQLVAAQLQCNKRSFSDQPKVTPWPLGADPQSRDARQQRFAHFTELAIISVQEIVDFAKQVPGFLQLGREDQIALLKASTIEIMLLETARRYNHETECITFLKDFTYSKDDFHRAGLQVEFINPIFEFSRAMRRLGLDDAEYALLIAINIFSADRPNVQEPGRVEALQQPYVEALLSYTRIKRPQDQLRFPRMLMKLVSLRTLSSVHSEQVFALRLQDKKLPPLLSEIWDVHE
Method: I. Ligand-Binding Test Procedure for Human LXRβ.
Receptor source: E. coli extracted from cells expressing biotinylated hLXRβ. Extract was made in a similar buffer as above, but with 50 mM TRIS.
Washed streptavidin and coated flash plates with wash buffer. Diluted receptor extract to give Bmax˜4000 cpm and add to the wells. Wrapped the plates in aluminum foil and stored them at +4° C. overnight.
as §1
Aspirated wells, and washed the flashed plates. Sealed the plate.
Measured the remaining radioactivity in the plate.

IC50 (human LXRα) [nM] | IC50 (human LXRβ) [nM] | Compound
1020 | 127 | Cc1nc2c(C(F)(F)F)cccc2nc1-c1cccc(Oc2cccc(S(C)(=O)=O)c2)c1 [Example 2, 3-methyl-2-{3-[3-(methylsulfonyl)phenoxy]phenyl}-5-(trifluoromethyl)quinoxaline]
1290 | 251 | Cc1nc2cccc(C(F)(F)F)c2nc1-c1cccc(Oc2cccc(S(C)(=O)=O)c2)c1 [Example 3, 2-methyl-3-{3-[3-(methylsulfonyl)phenoxy]phenyl}-5-(trifluoromethyl)quinoxaline]
> 1000 | 373 | Cc1nc2cccc(C(F)(F)F)c2nc1-c1ccc(-c2cccc(S(C)(=O)=O)c2)cc1 [Example 4, 2-methyl-3-[3′-(methylsulfonyl)biphenyl-4-yl]-5-(trifluoromethyl)quinoxaline]
> 1000 | 390 | Cc1nc2c(Cl)cccc2nc1-c1cccc(Oc2cccc(S(C)(=O)=O)c2)c1 [Example 5, 5-chloro-3-methyl-2-{3-[3-(methylsulfonyl)phenoxy]phenyl}quinoxaline]
> 1000 | 398 | Cc1nc2cccc(C(F)(F)F)c2nc1-c1ccc(-c2cccc(S(C)(=O)=O)c2)cc1F [Example 6, 3-[3-fluoro-3′-(methylsulfonyl)biphenyl-4-yl]-2-methyl-5-(trifluoromethyl)quinoxaline]
> 1000 | 1550 | Cc1nc2cccc(C(F)(F)F)c2nc1-c1ccc(Oc2cccc(S(C)(=O)=O)c2)cc1 [Example 7, 2-methyl-3-{4-[3-(methylsulfonyl)phenoxy]phenyl}-5-(trifluoromethyl)quinoxaline]
> 1000 | 1650 | CS(=O)(=O)c1cccc(Oc2cccc(-c3cnc4c(Cl)cccc4n3)c2)c1 [Example 8, 5-chloro-2-{3-[3-(methylsulfonyl)phenoxy]phenyl}quinoxaline]
> 1000 | 1960 | CS(=O)(=O)c1cccc(Oc2cccc(-c3cnc4cccc(C(F)(F)F)c4n3)c2)c1 [Example 9, 2-{3-[3-(methylsulfonyl)phenoxy]phenyl}-8-(trifluoromethyl)quinoxaline]
> 1000 | 2210 | Cc1nc2cccc(Cl)c2nc1-c1cccc(Oc2cccc(S(C)(=O)=O)c2)c1 [Example 10, 5-chloro-2-methyl-3-{3-[3-(methylsulfonyl)phenoxy]phenyl}quinoxaline]
> 1000 | 2480 | O=S(=O)(CCCO)c1cccc(Oc2cccc(-c3cnc4cccc(C(F)(F)F)c4n3)c2)c1 [Example 11, 3-[(3-{3-[8-(trifluoromethyl)quinoxalin-2-yl]phenoxy}phenyl)sulfonyl]propan-1-ol]
> 1000 | 6400 | Cc1nc2c(C(F)(F)F)cccc2nc1-c1ccc(Oc2cccc(S(C)(=O)=O)c2)cc1 [Example 12, 3-methyl-2-{4-[3-(methylsulfonyl)phenoxy]phenyl}-5-(trifluoromethyl)quinoxaline]
292 | 19.5 | Cc1nc2c(C(F)(F)F)cccc2nc1-c1cc(Oc2cccc(S(C)(=O)=O)c2)ccc1Cl [Example 36, 2-{2-chloro-5-[3-(methylsulfonyl)phenoxy]phenyl}-3-methyl-5-(trifluoromethyl)quinoxaline]
557 | 37 | Cc1nc2cccc(C(F)(F)F)c2nc1-c1cc(Oc2cccc(S(C)(=O)=O)c2)ccc1Cl [Example 37, 3-{2-chloro-5-[3-(methylsulfonyl)phenoxy]phenyl}-2-methyl-5-(trifluoromethyl)quinoxaline]
1890 | 745 | Cc1nc2c(C(F)(F)F)cccc2nc1-c1cc(Oc2ccc(S(C)(=O)=O)cc2)ccc1Cl [Example 42, 2-{2-chloro-5-[4-(methylsulfonyl)phenoxy]phenyl}-3-methyl-5-(trifluoromethyl)quinoxaline]
1620 | 1460 | Cc1nc2c(C(F)(F)F)cccc2nc1-c1cc(Oc2ccccc2S(C)(=O)=O)ccc1Cl [Example 46, 2-{2-chloro-5-[2-(methylsulfonyl)phenoxy]phenyl}-3-methyl-5-(trifluoromethyl)quinoxaline]
435 | 12 | CCS(=O)(=O)c1cccc(Oc2ccc(Cl)c(-c3nc4cccc(C(F)(F)F)c4nc3C)c2)c1 [Example 56, 2-{2-chloro-5-[3-(ethylsulfonyl)phenoxy]phenyl}-3-methyl-5-(trifluoromethyl)quinoxaline]
947 | 78.9 | Cc1nc2c(C(F)(F)F)cccc2nc1-c1cc(Oc2cccc(S(=O)(=O)C(C)C)c2)ccc1Cl [Example 57, 2-(2-chloro-5-{3-[(1-methylethyl)sulfonyl]phenoxy}phenyl)-3-methyl-5-(trifluoromethyl)-quinoxaline]
> 1000 | – | COc1cccc2nc(-c3ccc(-c4cccc(S(C)(=O)=O)c4)cc3)c(C)nc12 [Example 70, 5-methoxy-3-methyl-2-[3′-(methylsulfonyl)biphenyl-4-yl]quinoxaline]
> 1000 | – | Cc1nc2c(C#N)cccc2nc1-c1ccc(-c2cccc(S(C)(=O)=O)c2)cc1 [Example 71, 3-methyl-2-[3′-(methylsulfonyl)biphenyl-4-yl]quinoxaline-5-carbonitrile]
– | 640 | CNS(=O)(=O)c1cccc(-c2cccc(Oc3cnc4c(Cl)cccc4n3)c2)c1 [Example 84, 3′-[(5-Chloroquinoxalin-2-yl)oxy]-N-methylbiphenyl-3-sulfonamide]
– | 257 | CS(=O)(=O)Nc1cccc(-c2cccc(Oc3cnc4c(Cl)cccc4n3)c2)c1 [Example 85, N-{3′-[(5-Chloroquinoxalin-2-yl)oxy]biphenyl-3-yl}methanesulfonamide]
– | > 1000 | CNS(=O)(=O)c1cccc(-c2ccc(Oc3cnc4c(Cl)cccc4n3)cc2)c1 [Example 86, 4′-[(5-Chloroquinoxalin-2-yl)oxy]-N-methylbiphenyl-3-sulfonamide]
– | > 1000 | CS(=O)(=O)Nc1cccc(-c2ccc(Oc3cnc4c(Cl)cccc4n3)cc2)c1 [Example 87, N-{4′-[(5-chloroquinoxalin-2-yl)oxy]biphenyl-3-yl}methanesulfonamide]
– | > 1000 | CNS(=O)(=O)c1cccc(-c2cccc(Oc3nc4cccc(Cl)c4nc3C)c2)c1 [Example 88, 3′-[(5-chloro-3-methylquinoxalin-2-yl)oxy]-N-methylbiphenyl-3-sulfonamide]
– | > 1000 | Cc1nc2c(Cl)cccc2nc1Oc1cccc(-c2cccc(S(N)(=O)=O)c2)c1 [Example 89, 3′-[(5-chloro-3-methylquinoxalin-2-yl)oxy]biphenyl-3-sulfonamide]
– | > 1000 | Cc1nc2c(Cl)cccc2nc1Oc1cccc(-c2cccc(NS(C)(=O)=O)c2)c1 [Example 90, N-{3′-[(5-chloro-3-methylquinoxalin-2-yl)oxy]biphenyl-3-yl}methanesulfonamide]
– | 933 | CNS(=O)(=O)c1cccc(-c2ccc(Oc3nc4cccc(Cl)c4nc3C)cc2)c1 [Example 91, 4′-[(5-chloro-3-methylquinoxalin-2-yl)oxy]-N-methylbiphenyl-3-sulfonamide]
– | 2470 | Cc1nc2c(Cl)cccc2nc1Oc1ccc(-c2cccc(S(N)(=O)=O)c2)cc1 [Example 92, 4′-[(5-chloro-3-methylquinoxalin-2-yl)oxy]biphenyl-3-sulfonamide]
